Data: paper PMC12454493, “Insight on novel sulfamoylphenyl pyrazole derivatives as anticancer carbonic anhydrase inhibitors” (Molecular Diversity, 2024)
Where “and” joins values, the source holds several entries; their conditions need not be identical. Equal entries are not always repeated.

Experiments:
[1] = test system: MOLT-4; assay: NCI-60 one-dose SRB screen (Leukemia); format: cell-based; details: Homo sapiens, single dose 10 µM, 48 h, read-out: Growth inhibition percent (GI %)
[2] = test system: CCRF-CEM; assay: NCI-60 one-dose SRB screen (Leukemia); format: cell-based; details: Homo sapiens, single dose 10 µM, 48 h, read-out: Growth inhibition percent (GI %)
[3] = test system: SR; assay: NCI-60 one-dose SRB screen (Leukemia); format: cell-based; details: Homo sapiens, single dose 10 µM, 48 h, read-out: Growth inhibition percent (GI %)
[4] = test system: HL-60(TB); assay: NCI-60 one-dose SRB screen (Leukemia); format: cell-based; details: Homo sapiens, single dose 10 µM, 48 h, read-out: Growth inhibition percent (GI %)
[5] = test system: K-562; assay: NCI-60 one-dose SRB screen (Leukemia); format: cell-based; details: Homo sapiens, K562, single dose 10 µM, 48 h, read-out: Growth inhibition percent (GI %)
[6] = test system: RPMI-8226; assay: NCI-60 one-dose SRB screen (Leukemia); format: cell-based; details: Homo sapiens, single dose 10 µM, 48 h, read-out: Growth inhibition percent (GI %)
[7] = test system: COLO 205; assay: NCI-60 one-dose SRB screen (Colon Cancer); format: cell-based; details: Homo sapiens, single dose 10 µM, 48 h, read-out: Growth inhibition percent (GI %)
[8] = test system: HCT-116; assay: NCI-60 one-dose SRB screen (Colon Cancer); format: cell-based; details: Homo sapiens, single dose 10 µM, 48 h, read-out: Growth inhibition percent (GI %)
[9] = test system: HT29; assay: NCI-60 one-dose SRB screen (Colon Cancer); format: cell-based; details: Homo sapiens, HT-29, single dose 10 µM, 48 h, read-out: Growth inhibition percent (GI %)
[10] = test system: SW-620; assay: NCI-60 one-dose SRB screen (Colon Cancer); format: cell-based; details: Homo sapiens, single dose 10 µM, 48 h, read-out: Growth inhibition percent (GI %)
[11] = test system: HCC-2998; assay: NCI-60 one-dose SRB screen (Colon Cancer); format: cell-based; details: Homo sapiens, single dose 10 µM, 48 h, read-out: Growth inhibition percent (GI %)
[12] = test system: KM12; assay: NCI-60 one-dose SRB screen (Colon Cancer); format: cell-based; details: Homo sapiens, single dose 10 µM, 48 h, read-out: Growth inhibition percent (GI %)
[13] = test system: HCT-15; assay: NCI-60 one-dose SRB screen (Colon Cancer); format: cell-based; details: Homo sapiens, single dose 10 µM, 48 h, read-out: Growth inhibition percent (GI %)
[14] = test system: SK-MEL-5; assay: NCI-60 one-dose SRB screen (Melanoma); format: cell-based; details: Homo sapiens, single dose 10 µM, 48 h, read-out: Growth inhibition percent (GI %)
[15] = test system: M14; assay: NCI-60 one-dose SRB screen (Melanoma); format: cell-based; details: Homo sapiens, single dose 10 µM, 48 h, read-out: Growth inhibition percent (GI %)
[16] = test system: UACC-257; assay: NCI-60 one-dose SRB screen (Melanoma); format: cell-based; details: Homo sapiens, single dose 10 µM, 48 h, read-out: Growth inhibition percent (GI %)
[17] = test system: MDA-MB-435; assay: NCI-60 one-dose SRB screen (Melanoma); format: cell-based; details: Homo sapiens, single dose 10 µM, 48 h, read-out: Growth inhibition percent (GI %)
[18] = test system: MALME-3M; assay: NCI-60 one-dose SRB screen (Melanoma); format: cell-based; details: Homo sapiens, single dose 10 µM, 48 h, read-out: Growth inhibition percent (GI %)
[19] = test system: SK-MEL-2; assay: NCI-60 one-dose SRB screen (Melanoma); format: cell-based; details: Homo sapiens, single dose 10 µM, 48 h, read-out: Growth inhibition percent (GI %)
[20] = test system: UACC-62; assay: NCI-60 one-dose SRB screen (Melanoma); format: cell-based; details: Homo sapiens, single dose 10 µM, 48 h, read-out: Growth inhibition percent (GI %)
[21] = test system: SK-MEL-28; assay: NCI-60 one-dose SRB screen (Melanoma); format: cell-based; details: Homo sapiens, single dose 10 µM, 48 h, read-out: Growth inhibition percent (GI %)
[22] = test system: UO-31; assay: NCI-60 one-dose SRB screen (Renal Cancer); format: cell-based; details: Homo sapiens, single dose 10 µM, 48 h, read-out: Growth inhibition percent (GI %)
[23] = test system: RXF 393; assay: NCI-60 one-dose SRB screen (Renal Cancer); format: cell-based; details: Homo sapiens, single dose 10 µM, 48 h, read-out: Growth inhibition percent (GI %)
[24] = test system: ACHN; assay: NCI-60 one-dose SRB screen (Renal Cancer); format: cell-based; details: Homo sapiens, single dose 10 µM, 48 h, read-out: Growth inhibition percent (GI %)
[25] = test system: SN12C; assay: NCI-60 one-dose SRB screen (Renal Cancer); format: cell-based; details: Homo sapiens, single dose 10 µM, 48 h, read-out: Growth inhibition percent (GI %)
[26] = test system: TK-10; assay: NCI-60 one-dose SRB screen (Renal Cancer); format: cell-based; details: Homo sapiens, single dose 10 µM, 48 h, read-out: Growth inhibition percent (GI %)
[27] = test system: CAKI-1; assay: NCI-60 one-dose SRB screen (Renal Cancer); format: cell-based; details: Homo sapiens, single dose 10 µM, 48 h, read-out: Growth inhibition percent (GI %)
[28] = test system: A498; assay: NCI-60 one-dose SRB screen (Renal Cancer); format: cell-based; details: Homo sapiens, single dose 10 µM, 48 h, read-out: Growth inhibition percent (GI %)
[29] = test system: HOP-62; assay: NCI-60 one-dose SRB screen (Non-Small Cell Lung Cancer); format: cell-based; details: Homo sapiens, single dose 10 µM, 48 h, read-out: Growth inhibition percent (GI %)
[30] = test system: A549/ATCC; assay: as above; format: cell-based; details: Homo sapiens, single dose 10 µM, 48 h, read-out: Growth inhibition percent (GI %)
[31] = test system: EKVX; assay: as above; format: cell-based; details: Homo sapiens, single dose 10 µM, 48 h, read-out: Growth inhibition percent (GI %)
[32] = test system: NCI-H226; assay: as above; format: cell-based; details: Homo sapiens, single dose 10 µM, 48 h, read-out: Growth inhibition percent (GI %)
[33] = test system: NCI-H460; assay: as above; format: cell-based; details: Homo sapiens, single dose 10 µM, 48 h, read-out: Growth inhibition percent (GI %)
[34] = test system: HOP-92; assay: as above; format: cell-based; details: Homo sapiens, single dose 10 µM, 48 h, read-out: Growth inhibition percent (GI %)
[35] = test system: NCI-H322M; assay: as above; format: cell-based; details: Homo sapiens, single dose 10 µM, 48 h, read-out: Growth inhibition percent (GI %)
[36] = test system: NCI-H522; assay: as above; format: cell-based; details: Homo sapiens, single dose 10 µM, 48 h, read-out: Growth inhibition percent (GI %)
[37] = test system: NCI-H23; assay: as above; format: cell-based; details: Homo sapiens, single dose 10 µM, 48 h, read-out: Growth inhibition percent (GI %)
[38] = test system: U251; assay: NCI-60 one-dose SRB screen (CNS Cancer); format: cell-based; details: Homo sapiens, U-251, single dose 10 µM, 48 h, read-out: Growth inhibition percent (GI %)
[39] = test system: SNB-75; assay: NCI-60 one-dose SRB screen (CNS Cancer); format: cell-based; details: Homo sapiens, single dose 10 µM, 48 h, read-out: Growth inhibition percent (GI %)
[40] = test system: SF-295; assay: NCI-60 one-dose SRB screen (CNS Cancer); format: cell-based; details: Homo sapiens, single dose 10 µM, 48 h, read-out: Growth inhibition percent (GI %)
[41] = test system: SF-539; assay: NCI-60 one-dose SRB screen (CNS Cancer); format: cell-based; details: Homo sapiens, single dose 10 µM, 48 h, read-out: Growth inhibition percent (GI %)
[42] = test system: SF-268; assay: NCI-60 one-dose SRB screen (CNS Cancer); format: cell-based; details: Homo sapiens, single dose 10 µM, 48 h, read-out: Growth inhibition percent (GI %)
[43] = test system: SNB-19; assay: NCI-60 one-dose SRB screen (CNS Cancer); format: cell-based; details: Homo sapiens, single dose 10 µM, 48 h, read-out: Growth inhibition percent (GI %)
[44] = target: hCA XII (Homo sapiens, UniProt O43570); assay: CA inhibitory activity, spectrophotometric p-NPA assay; format: biochemical; details: p-NPA substrate, pH 7.5, 25 °C, triplicate; read-out: IC50 (µM) ± SD hCA XII
[45] = target: hCA IX (Homo sapiens, UniProt Q16790); assay: as above; format: biochemical; details: p-NPA substrate, pH 7.5, 25 °C, triplicate; read-out: IC50 (µM) ± SD hCA IX

Sequence of hCA XII (O43570 25-354): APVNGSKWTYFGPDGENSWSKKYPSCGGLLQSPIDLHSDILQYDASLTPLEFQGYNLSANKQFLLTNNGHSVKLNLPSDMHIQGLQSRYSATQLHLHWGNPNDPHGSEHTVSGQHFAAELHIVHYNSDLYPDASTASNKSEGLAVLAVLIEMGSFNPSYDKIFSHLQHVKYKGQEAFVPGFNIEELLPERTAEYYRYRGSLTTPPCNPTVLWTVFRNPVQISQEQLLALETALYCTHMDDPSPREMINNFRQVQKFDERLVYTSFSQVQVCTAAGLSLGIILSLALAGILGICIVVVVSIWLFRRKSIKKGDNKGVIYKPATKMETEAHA

NS(=O)(=O)c1ccc(-n2cc(C(=O)OCC(=O)Nc3nnc(S(N)(=O)=O)s3)c(-c3ccccc3)n2)cc1 [Compound 6a, 2-Oxo-2-[(5-sulfamoyl-1,3,4-thiadiazol-2-yl)amino] ethyl 3-phenyl-1-(4-sulfamoylphenyl)-1H-pyrazole-4-carboxylate]
inhibition at 10 µM [1]: < 5%
inhibition at 10 µM [2]: < 5%
inhibition at 10 µM [3]: 17%
inhibition at 10 µM [4]: < 5%
inhibition at 10 µM [5]: < 5%
inhibition at 10 µM [6]: < 5%
inhibition at 10 µM [7]: < 5%
inhibition at 10 µM [8]: < 5%
inhibition at 10 µM [9]: < 5%
inhibition at 10 µM [10]: < 5%
inhibition at 10 µM [11]: < 5%
inhibition at 10 µM [12]: < 5%
inhibition at 10 µM [13]: < 5%
inhibition at 10 µM [14]: < 5%
inhibition at 10 µM [15]: < 5%
inhibition at 10 µM [16]: < 5%
inhibition at 10 µM [17]: < 5%
inhibition at 10 µM [18]: < 5%
inhibition at 10 µM [19]: < 5%
inhibition at 10 µM [20]: 17.7%
inhibition at 10 µM [21]: < 5%
inhibition at 10 µM [22]: 12.6%
inhibition at 10 µM [23]: < 5%
inhibition at 10 µM [24]: 6.63%
inhibition at 10 µM [25]: < 5%
inhibition at 10 µM [26]: < 5%
inhibition at 10 µM [27]: 7.52%
inhibition at 10 µM [28]: < 5%
inhibition at 10 µM [29]: < 5%
inhibition at 10 µM [30]: < 5%
inhibition at 10 µM [31]: 9.86%
inhibition at 10 µM [32]: 16.2%
inhibition at 10 µM [33]: < 5%
inhibition at 10 µM [34]: < 5%
inhibition at 10 µM [35]: < 5%
inhibition at 10 µM [36]: 13.3%
inhibition at 10 µM [37]: < 5%
inhibition at 10 µM [38]: < 5%
inhibition at 10 µM [39]: 5.39%
inhibition at 10 µM [40]: < 5%
inhibition at 10 µM [41]: < 5%
inhibition at 10 µM [42]: < 5%
inhibition at 10 µM [43]: 6.91%
IC50 [44]: 0.35 µM and 0.358 µM
IC50 [45]: 0.591 ± 0.028 µM
melting point: 135 to 137 °C
